The source of these data is ChEMBL document CHEMBL1148255, “Facile synthesis of fused 1,2,4-triazolo[1,5-c]pyrimidine derivatives as human adenosine A3 receptor ligands” (Bioorg Med Chem Lett, 2004).

pIC50: −log10 of the molar value.

The target of this assay is Adenosine receptor A2a (Homo sapiens, UniProt P29274). Description: biochemical.
Adenosine receptor A2a, sequence (P29274 whole entry): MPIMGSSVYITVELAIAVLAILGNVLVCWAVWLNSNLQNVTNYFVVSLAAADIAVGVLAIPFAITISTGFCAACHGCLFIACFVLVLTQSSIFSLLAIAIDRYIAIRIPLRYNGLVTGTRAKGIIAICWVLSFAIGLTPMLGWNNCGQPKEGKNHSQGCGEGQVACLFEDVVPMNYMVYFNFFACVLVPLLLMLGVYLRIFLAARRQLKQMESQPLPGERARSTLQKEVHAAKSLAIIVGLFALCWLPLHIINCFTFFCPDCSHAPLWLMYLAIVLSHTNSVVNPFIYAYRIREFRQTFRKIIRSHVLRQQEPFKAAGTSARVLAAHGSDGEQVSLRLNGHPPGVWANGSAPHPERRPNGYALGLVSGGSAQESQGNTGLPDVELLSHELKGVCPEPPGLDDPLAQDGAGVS

As for `CCCCc1nc2[nH]cnc2c2nc(-c3ccc(C(F)(F)F)cc3)nn12`, the pIC50 is less than 5.00.

On to `CCCCc1nc2n[nH]cc2c2nc(-c3ccc(OC)cc3)nn12`, for which the pIC50 was […].
